The values that follow come from patent publication US20160081336A1, “MEDIUM WITH A PLANT NON-METABOLIZABLE SUGAR FOR IMPROVING SEED GERMINATION” (WEYERHAEUSER NR COMPANY, priority 2014, published 2016).

SMILES strings stand for the structures.

Test [1] in a line: Study testing increased arginine in gametophyte medium. The conditions noted are these: in vivo. The source says:
Aside from the signaling evidence from the literature, the effect of isomaltulose is not thought to be simply from additional osmoticant because higher osmolality medium would drive the water potential gradient further in the direction of the gametophyte, not toward the embryo.

Test [2] concerns alkaline and acid invertases. The conditions noted are these: cut potato tubers; cited from earlier work.
Test [3] concerns embryos dissected from natural loblolly pine seed. Kind of test: Germination of loblolly pine embryos in manufactured seed, sucrose/isomaltulose gametophyte media (Example 2). Format: in vivo. The following applies: relative to 20 sucrose.
Description: Normal (germination score): Fully extracted out of seed with no malformation (epicotyl optional for fully extracted). OR partial germinant with epicotyl out of cavity and all organs—No Malformations present. Root length of at least 3.0 mm.
Partial Normal (germination score): Not fully emerged, partial germinant with no epicotyl and no malformations. Root length of at least 3.0 mm.
Not normal (germination score): Malformed partial germinants, lacking organs, roots less than 3 mm, any upside down or twisted germinant, or germinated and died as evidenced by lid penetration but no germinant present.
Manufactured seeds were prepared with KE 64 agar nutritive medium, as shown below in Table 1, with sucrose (50 g/L), agar (18 g/L to 26 g/L), nutrient-loaded charcoal (60 g/L) and Pluronic F68 (10 g/L).
The germination rate may be measured and the normalcy of the germinants may also be assessed. A “normal germinant” or “normalcy” denotes the presence of all expected parts of a plant at time of evaluation. In the case of gymnosperms, normalcy is characterized by the radicle having a length greater than 3 mm and no visibly discernable malformations compared to the appearance of embryos germinated from natural seed. “Not normal” means tissue on at least one organ is swollen, and the root and cotyledons are dead. […]
For a further test, the system named is embryos. Kind of test: Lower sucrose concentrations study (15, 25, 35 and 50 g/l; FIG. 4-6). Format: in vivo. The source says: Organ lengths were also a factor with relation to sucrose concentrations. It was hypothesized that lower sucrose concentrations would affect root lengths and indeed the lower sucrose treatments produced shorter root lengths as compared to the highest group 50 g/l sucrose (FIG. 4). […] After observing sufficient lid penetration, seed were transferred from boxes to sterile sand.

Another test relates to developing embryo. In words: Earlier sucrose level study in manufactured seed (FIG. 2, 3). In kind it is in vivo. The source says:
Higher water potential with relation to lower sucrose levels (solute concentration) was previously purported to increase flooding in gametophyte seed cavities. […] Because of the flooding problem, this study could have selected for those treatments that had the most rapid lid penetration, which would allow embryos to escape the flooded seed environment.

Consider `N=C(N)NCCC[C@H](N)C(=O)O` [arginine], for which the “performance with increased arginine” value in test [1] is listed as “reduced performance at higher levels”.

For the compound `O=C(CO)[C@@H](O)[C@H](O)[C@H](O)CO[C@H]1O[C@H](CO)[C@@H](O)[C@H](O)[C@H]1O` [isomaltulose, 6-O-α-d-glucopyranosyl-D-fructose], in test [2], the “isomaltulose concentration at peak acid invertase activity” value is listed as 20 mM and the “isomaltulose concentration at peak alkaline invertase activity” value was 50 mM. In addition, in test [3], the lateral roots entry is given as “significantly improved lateral root presence”.

With `OC[C@H]1O[C@@](CO)(O[C@H]2O[C@H](CO)[C@@H](O)[C@H](O)[C@H]2O)[C@@H](O)[C@@H]1O` [sucrose], the root length result with embryos (FIG. 4) is “increased root length with relation to rising sucrose levels”. Also, the normalcy entry is listed as “normalcy increasing with higher sucrose concentrations” with embryos (after germination in sand, FIG. 6) and “decreased with increasing sucrose concentration” in the test on developing embryo (FIG. 3). In the test with embryos (day 5, FIG. 5), the embryo activity entry is given as “Lower concentrations of sucrose gave the highest yield of embryo activity”. The organ lengths result with developing embryo (FIG. 2) was “increased with sucrose at 50 g/l and greater”.
